Results reported in EP1058559B1, “COMBINATION OF A SELECTIVE NMDA NR2B ANTAGONIST AND A COX-2 INHIBITOR” (MERCK SHARP & DOHME LTD., priority 1998, dated 1999).

Legend:
[1] = system: mechanical hyperalgesia induced by carrageenan; assay: carrageenan-induced hyperalgesia assay (mechanical thresholds, modified Ugo Basile Algesiometer); format: in vivo, male Sprague Dawley rats; settings: for inhibition of hyperalgesia: alone, Figure 2
Procedure: (§1) The present Example examined whether NMDA NR2B receptor antagonists have an improved therapeutic window over unselective NNIDA/glycine antagonists and other ion channel blockers including lamotrigine and gabapentin, by comparing their anti-algesic effects with their liability to induce motor impairment in rats. Anti-algesic activity was assessed using an assay of neuropathic pain in rats (sciatic nerve ligation) and in a carrageenan-induced hyperalgesia assay. Motor impairment was measured using an accelerating rotarod.
For sciatic nerve ligation, male Sprague Dawley rats (180-220g) were anaesthetised with isofluorane, the left sciatic nerve exposed and 4 chromic catgut (4.0) ligatures were tied loosely around the nerve (spaced 1-2 mm apart) immediately proximal to the point of trifurcation. In shamoperated animals, the same dissection was performed but without ligation. Responses to mechanical pressure were assessed 7 days after ligation using a modified Randall-Selitto algesiometer in which constant force of […] was applied to the hind paw and the latency to struggle was recorded as the reaction time. […] Reaction times for drug treated rats were expressed as a percentage of this response. […] In the carrageenan-induced hyperalgesia assay, male Sprague Dawley rats (100-120 g) received an intraplantar injection of carrageenan (4.5 mg) and mechanical thresholds were determined 3 h later using a modified Ugo Basile Algesiometer. […] Paw pressure scores for drug-treated rats were expressed as a percentage of this response. […] Animals then received drug treatments and 1 h later were placed on an accelerating rotarod (increasing from 4 - 40 r.p.m. during a 5 min period) and the time the rats were able to remain on the rotarod recorded. […]
Mate Sprague Dawley rats (100-120 g) received an intraplantar injection of carrageenan (4.5 mg) and mechanical thresholds were determined 3 h later using a modified Ugo Basile Algesiometer. […] Paw pressure scores for drug-treated rats were expressed as a percentage of this response. […]

[2] = system: motor co-ordination; assay: accelerating rotarod (motor co-ordination) with observed behaviour; format: in vivo, male Sprague Dawley rats; settings: for ID50 Motor Impairment Rat Rotarod: male, Sprague Dawley, in vivo, ip, 1 h
Procedure: as §1
(§2) For sciatic nerve ligation, male Sprague Dawley rats (180-220g) were anaesthetised with isofluorane, the left sciatic nerve exposed and 4 chromic catgut (4.0) ligatures were tied loosely around the nerve (spaced 1-2 mm apart) immediately proximal to the point of trifurcation. In shamoperated animals, the same dissection was performed but without ligation. Responses to mechanical pressure were assessed 7 days after ligation using a modified Randall-Selitto algesiometer in which constant force of […] was applied to the hind paw and the latency to struggle was recorded as the reaction time. Mechanical allodynia was defined as the difference in reaction time for sham and ligature rats. Reaction times for drug treated rats were expressed as a percentage of this response. Compounds were administered 1 h before the test. In the carrageenan-induced hyperalgesia assay, male Sprague Dawley rats (100-120 g) received an intraplantar injection of carrageenan (4.5 mg) and mechanical thresholds were determined 3 h later using a modified Ugo Basile Algesiometer. Control rats received saline (0.15 ml i.pl.). Hyperalgesia was defined as the difference in vocalisation threshold for saline- and carrageenan-injected rats. Paw pressure scores for drug-treated rats were expressed as a percentage of this response. Compounds were administered 2 h after carrageenan. To determine the effects of the compounds on motor co-ordination, male Sprague Dawley rats (160-180 g) were first trained to remain for 120 s on the rotarod apparatus revolving at 12 r.p.m. on the morning before the test. Animals then received drug treatments and 1 h later were placed on an accelerating rotarod (increasing from 4 - 40 r.p.m. during a 5 min period) and the time the rats were able to remain on the rotarod recorded. Lamotrigine, gabapentin and (±)-CP-101,606 were suspended in 0.5% methocel and administered orally (1 ml/kg). Ifenprodil, L-701,324, L-687,414 and (±)-Ro25-6981 were dissolved or suspended in 0.5% methocel and administered intraperitoneally (1 ml/kg). MK-801 was dissolved in distilled water and given i.p. (1 ml/kg). Doses of compounds refer to the free base.
To determine the effects of morphine and (±)-Ro25-6981 on motor co-ordination, male Sprague Dawley rats (160-180 g) were first trained to remain for 120 s on the rotarod apparatus revolving at. 12 r.p.m. on the morning before the test. Animals then received drug treatments and 1 h later were placed on an accelerating rotarod (increasing from 4 - 40 r.p.m. during a 5 min period) and the time the rats were able to remain on the rotarod recorded.

[3] = system: mechanical allodynia induced by sciatic nerve ligation; assay: sciatic nerve ligation assay of neuropathic pain (mechanical allodynia, modified Randall-Selitto algesiometer); format: in vivo, male Sprague Dawley rats; settings: result in words; given 1 h before the test
Procedure: as §1, §2

[4] = at doses showing no behavioural abnormality; cited from earlier work

C[C@@H](CN1CCC(Cc2ccccc2)CC1)[C@@H](O)c1ccc(O)cc1 (racemic) [(±)-Ro25-6981]
reversal of mechanical hyperalgesia induced by carrageenan ([1]; 10 and 30 mg/kg i.p., Figure 1): dose-dependent reversal of mechanical hyperalgesia
ID50 Motor Impairment Rat Rotarod [2]: ≥100 mg/kg
reversal of mechanical allodynia induced by sciatic nerve ligation [3]: dose-dependently reversed mechanical allodynia

NCC1(CC(=O)O)CCCCC1 [Gabapentin]
motor impairments observed ([2]; doses of 30-300 mg/kg): motor impairments (ataxia)
reversal of mechanical allodynia induced by sciatic nerve ligation [3]: reversed mchanical allodynia

CC(C(O)c1ccc(O)cc1)N1CCC(Cc2ccccc2)CC1 (centres unmarked) [Ifenprodil]
ID50 Motor Impairment Rat Rotarod [2]: ≥50 mg/kg
reversal of mechanical allodynia induced by sciatic nerve ligation [3]: reversed mchanical allodynia

C[C@@H]1CN(O)C(=O)[C@@H]1N [L-687,414]
reversal of mechanical allodynia induced by sciatic nerve ligation [3]: dose-dependently reversed mechanical allodynia

O=c1[nH]c2cc(Cl)ccc2c(O)c1-c1cccc(Oc2ccccc2)c1 [L-701,324]
behavioural effects observed ([2]; 10 and 30 mg/kg i.p.): ataxia
reversal of mechanical allodynia induced by sciatic nerve ligation [3]: dose-dependently reversed mechanical allodynia

CS(=O)(=O)Nc1cc2c(cc1Sc1ccc(F)cc1F)C(=O)CC2 [L-745,337]
inhibition of hyperalgesia ([1]; 3 mg/kg p.o.): 75%
inhibition of hyperalgesia ([1]; 0.3-3 mg/kg p.o., result in words): dose-dependent inhibition of hyperalgesia

Nc1nnc(-c2cccc(Cl)c2Cl)c(N)n1 [Lamotrigine]
reversal of mechanical allodynia induced by sciatic nerve ligation [3]: reversed mchanical allodynia

C[C@]12N[C@H](Cc3ccccc31)c1ccccc12 [MK-801]
behavioural effects observed ([2]; 0.3 and 1 mg/kg doses (i.p.)): Body rolling, and head weaving
reversal of mechanical allodynia induced by sciatic nerve ligation [3]: dose-dependently reversed mechanical allodynia

(±)-CP-101,606
analgesic activity [4]: Potent analgesic activity
reversal of mechanical allodynia induced by sciatic nerve ligation [3]: dose-dependently reversed mechanical allodynia
